Data on eight compounds can be found in ChEMBL document CHEMBL3632588 (Medchemcomm, 2015).

Series [1] in a line: Antiproliferative activity against mouse B16F0 cells assessed as cell growth at 20 uM after 72 hrs by colorimetry. Conditions: B16F0, 72 h, read-out: Activity. Type of series: functional.
The subject of series [2] is HeLa. Nature of the series: Antiproliferative activity against human HeLa cells assessed as cell growth at 20 uM after 72 hrs by colorimetry. Conditions: read-out: Activity. The class given is functional.
Series [3] relates to MCF7. Nature of the series: Antiproliferative activity against human MCF7 cells assessed as cell growth at 20 uM after 72 hrs by colorimetry. The class given is functional. Conditions: MCF7, 72 h, read-out: Activity.
Series [4] is described as follows: Cytotoxicity in mouse NMuMG cells assessed as cell growth at 20 uM after 72 hrs by colorimetry. Type of series: cell-based. Conditions: read-out: Activity.
A short description of series [5]: Antiproliferative activity against mouse LM3 cells assessed as cell growth at 20 uM after 72 hrs by colorimetry. The class given is functional. To be noted: LM3, 72 h, read-out: Activity.
The nature of series [6]: Antiproliferative activity against mouse LM3 cells after 72 hrs by colorimetry. Type of series: functional, cell-based. Conditions: LM3, 72 h.
Series [7] in a line: Ratio of IC50 for mouse NMuMG cells to IC50 for mouse B16F0 cells.
Series [8] deals with HeLa. Nature of the series: Antiproliferative activity against human HeLa cells after 72 hrs by colorimetry. Type of series: functional, cell-based.
For series [9], the system named is HeLa. Nature of the series: Ratio of IC50 for mouse NMuMG cells to IC50 for human HeLa cells.
Series [10] in a line: Antiproliferative activity against mouse B16F0 cells after 72 hrs by colorimetry. Conditions: B16F0, 72 h. Type of series: functional, cell-based.
Series [11] is described as follows: Ratio of IC50 for mouse NMuMG cells to IC50 for mouse […] cells.
A short description of series [12]: Cytotoxicity in mouse NMuMG cells after 72 hrs by colorimetry. Type of series: cell-based.
Series [13] relates to MCF7. Kind of series: Ratio of IC50 for mouse NMuMG cells to IC50 for human MCF7 cells.
The subject of series [14] is MCF7. Nature of the series: Antiproliferative activity against human MCF7 cells after 72 hrs by colorimetry. Conditions: MCF7, 72 h. The class given is functional, cell-based.

For `COC(=O)[C@@H]1N2C(=O)[C@H](Cl)[C@H]2S[C@@]1(C)CSc1nc2ccccc2o1`, the growth at 20 µM in series [1] is 68%; with HeLa [2] it was 68%; in the series on MCF7 [3] it was 84%; in series [5], 87%. Moreover, the viability at 72 h, 20 µM in [4] came to 65%.
Turning to `CCOc1ccc2nc(SC[C@]3(C)S[C@@H]4[C@@H](Cl)C(=O)N4[C@H]3C(=O)OC)sc2c1`, the IC50 (as a rule, the concentration that inhibits the measured activity by half) was 24 µM in [6], 24 µM in the series with HeLa [8], 27 µM in series [10] and 43 µM in series [12]. Besides, the growth at 20 µM in series [1] was determined as 52%; with HeLa [2], 56%; in the series on MCF7 [3], 65%; in series [5], 49%. Further, the “Ratio IC50” value in series [7] is 1.6; in the series on HeLa [9], 1.8; in series [11] it was 1.8. In addition, the viability at 72 h, 20 µM in [4] came to 64%.
With `COC(=O)[C@@H]1N2C(=O)C(Br)(Br)[C@H]2S(=O)(=O)[C@@]1(C)CCl`, in [4], the viability at 72 h, 20 µM amounted to 35%.
As to `COC(=O)[C@@H]1N2C(=O)C(Br)(Br)[C@H]2S[C@@]1(C)CSc1nc(-c2ccccc2)c(-c2ccccc2)o1`, the IC50 worked out at 14 µM in series [6]; 7 µM with HeLa [8]; 18 µM in the series with MCF7 [14]; 11 µM in series [10]; 31 µM in series [12]. In addition, the growth at 20 µM in series [1] worked out at 38%; in the series with HeLa [2] it was 7%; in the series with MCF7 [3], 27%; in series [5] it was 35%. Besides, the “Ratio IC50” value in series [7] is 2.8; in the series on MCF7 [13] it was 1.7; in the series with HeLa [9], 4.4; in [11] it was 2.2. The viability at 72 h, 20 µM in series [4] was found to be 55%.
As for `COC(=O)[C@@H]1N2C(=O)[C@H](Cl)[C@H]2S[C@@]1(C)CSC1=NCCS1`, the IC50 worked out at 20 µM in series [6], 19 µM in the series on HeLa [8] and 41 µM in series [12]. Besides, the growth at 20 µM in series [1] amounted to 71%; with HeLa [2] it was 48%; with MCF7 [3], 87%; in series [5] it was 54%. Also, the “Ratio IC50” value is 2.2 in the series with HeLa [9] and 2 in [11]. The viability at 72 h, 20 µM in series [4] came to 65%.
Consider `COC(=O)[C@@H]1N2C(=O)[C@H](Cl)[C@H]2S[C@@]1(C)CSc1nc(-c2ccccc2)c(-c2ccccc2)o1`, for which the growth at 20 µM in [1] came out at 65%; with HeLa [2], 27%; in the series on MCF7 [3], 87%; in [5], 65%. The 50% inhibitory concentration (IC50) with HeLa [8] is 13 µM; in series [12], 32 µM. Besides, in the series on HeLa [9], the “Ratio IC50” value is given as 2.5. Also, the viability at 72 h, 20 µM in series [4] worked out at 55%.
With `COC(=O)[C@@H]1N2C(=O)[C@H](Cl)[C@H]2S[C@@]1(C)CSc1nc2ccccc2s1`, the IC50 amounted to 20 µM in series [6], 18 µM in the series with HeLa [8], 18 µM in series [10] and 36 µM in series [12]. The growth at 20 µM is 48% in series [1], 44% in the series with HeLa [2], 66% with MCF7 [3] and 55% in series [5]. For the same compound, the “Ratio IC50” value stood at 2 in [7], 2 with HeLa [9] and 1.8 in series [11]. Further, the viability at 72 h, 20 µM in series [4] turned out to be 55%.
On to `CCOc1ccc2nc(SC[C@@]3(C)[C@H](C(=O)OC)N4C(=O)[C@H](Cl)[C@H]4S3(=O)=O)sc2c1`, for which, in [4], the viability at 72 h, 20 µM was determined as 8%.
